This experiment has as its system MDCK cell wounds. Nature of the experiment: lamellipodial density at the margin of MDCK cell wounds. The format is cell-based, canine. Particulars: for Lamellipodial Density: 50 μM, mean ± SEM, * p<0.05 vs control. The procedure: Lamellipodial protrusion is known to drive most forms of animal cell crawling. At any given time in the migrating cell sheet, some cells are extending lamellipodia at the margin while others are not. […] Therefore, inhibition of cell sheet migration by compound 1 at least in part is attributed to reduced formation of lamellipodia at the would margin.
Lamellipodial density at the margin of MDCK cell wounds was determined under the following treatment conditions: 0.1% DMSO (control, n=25 wounded monolayers), 50 μM compound 1 (n=19), or 50 μM compound 11 (n=10). Lamellipodial density is the number of lamellipodial protrusions detected at the wound margin until closure for the times indicated divided by margin perimeter length. Values are mean±SEM.
Wound closure assay and compound screening: MDCK cells were plated on multiwell tissue culture plates and cultured at 37° C. and 5% CO2 with medium changes every two days until confluent. When the cultures reached confluence, medium was changed again and all experimental treatments were begun a day later. Compounds were solubilized in dimethyl sulfoxide (DMSO) and added with fresh-medium to cell cultures at initial screening concentrations of 10 and 100 μM. Controls consisted of parallel wells to-which DMSO solvent carrier alone was added at the same concentration as that added with experimental treatments (not exceeding 0.1% (v/v)). DMSO alone at this concentration had no detectable effect on the cells. Monolayers were scraped 30 min later with a micropipette and ultramicro tips, allowing small wounds of consistent size to be generated. Progress of wound closure was examined at set time intervals following wounding by microscope, and inhibitory or acceleratory effects on wound closure relative to parallel controls noted. […] Digital images of the wounded monolayers were taken every 2 hours for 18 hours, and then at 30, 36, 54, 60, and 72 hours following wounding. The number of lamellipodia at the wound margin was also counted at these times.

With `C/C=C/C(=O)N1C(=O)OC[C@@H]1Cc1ccccc1` [Compound 1, (4S)-3-((E)-2-butenoyl)-4-benzyl-2-oxazolidinone], the “Lamellipodial Density” value by setting is: (2 hours) 0.341 ± 0.119; (4 hours) 0.573 ± 0.194*; (6 hours) 0.563 ± 0.142*; (8 hours) 0.938 ± 0.184*; (10 hours) 0.803 ± 0.203; (12 hours) 0.520 ± 0.124*. In addition, the “cells extending lamellipodia at the margin” value (versus control) is reported as “significantly fewer cells extending lamellipodia at the margin”.

Source of the values: US7390826B2, “Inhibitors of animal cell motility and growth” (The Board of Trustees of The University of Illinois, priority 2002, dated 2008).
